According to ChEMBL document CHEMBL4011594, “Discovery and optimization of 2-pyridinone aminal integrase strand transfer inhibitors for the treatment of HIV” (Bioorg Med Chem Lett, 2017):
Values after ≈ are worked out from the molar mass of the structure shown.

Tests used:
[1] = tested on: Human immunodeficiency virus 1; experiment: Inhibition of HIV-1 integrase strand transfer activity assessed as reduction in viral replication in presence of 50% normal human serum
[2] = tested on: Human immunodeficiency virus 1; experiment: Inhibition of wild-type HIV-1 integrase strand transfer activity assessed as reduction in viral replication in presence of 10% normal human serum
[3] = Aqueous solubility of the compound at pH 7; type: physicochemical
[4] = Aqueous solubility of the compound at pH 2; type: physicochemical

Row | SMILES | IP [1] | IP [2] | solubility [3] | solubility [4]
1 | O=C1N[C@@]2(CC[C@@H]3C[C@@H]32)n2c1c1c(c(O)c2=O)C(=O)N(Cc2ccc(F)c(Cl)c2)CC1 | 88 nM | 16 nM | 32 µM (≈ 14.2 µg/mL) | 49 µM (≈ 21.7 µg/mL)
2 | O=C1c2c(c3n(c(=O)c2O)C2(CCC4CC42)N(CCN2CCCS2(=O)=O)C3=O)CCN1Cc1ccc(F)c(Cl)c1 (stereo not drawn) | 170 nM | 17 nM | < 4 µM | 11 µM (≈ 6.5 µg/mL)
3 | O=C1NC2(CCc3ccccc32)n2c1c1c(c(O)c2=O)C(=O)N(Cc2ccc(F)c(Cl)c2)CC1 (racemic) | 190 nM | 27 nM | < 2 µM | < 2 µM
4 | CO[C@@H](C)CN1C(=O)c2c3c(c(O)c(=O)n2C12CCC1CC12)C(=O)N(Cc1ccc(F)c(Cl)c1)CC3 (stereo partly drawn) | 210 nM | 28 nM | 23 µM (≈ 11.9 µg/mL) | 12 µM (≈ 6.19 µg/mL)
5 | COCC(O)CN1C(=O)c2c3c(c(O)c(=O)n2C12CCC1CC12)C(=O)N(Cc1ccc(F)c(Cl)c1)CC3 (stereo not drawn) | 130 nM | 16 nM | 123 µM (≈ 65.4 µg/mL) | 157 µM (≈ 83.5 µg/mL)
6 | Cc1cccc2c1C1(CC2)NC(=O)c2c3c(c(O)c(=O)n21)C(=O)N(Cc1ccc(F)c(Cl)c1)CC3 (racemic) | 140 nM | 37 nM | < 2 µM | < 2 µM
7 | O=C1NC(C2CCCC2)n2c1c1c(c(O)c2=O)C(=O)N(Cc2ccc(F)c(Cl)c2)CC1 (racemic) | > 1000 nM | > 10000 nM | < 5 µM | 116 µM (≈ 51.7 µg/mL)
8 | COc1ccnc2c1C1(CC2)NC(=O)c2c3c(c(O)c(=O)n21)C(=O)N(Cc1ccc(F)c(Cl)c1)CC3 (racemic) | 74 nM | 13 nM | 63 µM (≈ 32.2 µg/mL) | 190 µM (≈ 97.1 µg/mL)
9 | N#Cc1cccc2c1[C@@]1(CC2)NC(=O)c2c3c(c(O)c(=O)n21)C(=O)N(Cc1ccc(F)c(Cl)c1)CC3 | 4110 nM | 1300 nM | 17 µM (≈ 8.58 µg/mL) | 10 µM (≈ 5.05 µg/mL)
10 | COCCN1C(=O)c2c3c(c(O)c(=O)n2C12CCC1CC12)C(=O)N(Cc1ccc(F)c(Cl)c1)CC3 (stereo not drawn) | 197 nM | 33 nM | 59 µM (≈ 29.6 µg/mL) | 54 µM (≈ 27.1 µg/mL)
11 | O=C1c2c(c3n(c(=O)c2O)C2(CCC4CC42)N(CC2CCOCC2)C3=O)CCN1Cc1ccc(F)c(Cl)c1 (racemic) | 240 nM | 31 nM | 14 µM (≈ 7.59 µg/mL) | 44 µM (≈ 23.8 µg/mL)
12 | O=C(CN1C(=O)c2c3c(c(O)c(=O)n2C12CCC1CC12)C(=O)N(Cc1ccc(F)c(Cl)c1)CC3)N1CCOCC1 (stereo not drawn) | 120 nM | 18 nM | 67 µM (≈ 38.3 µg/mL) | 151 µM (≈ 86.2 µg/mL)
13 | CN1C(=O)c2c3c(c(O)c(=O)n2C12CCCCCC2)C(=O)N(Cc1ccc(F)c(Cl)c1)CC3 | 4800 nM | 1100 nM | < 5 µM | < 5 µM
14 | O=C1c2c(c3n(c(=O)c2O)C2(CCC4CC42)N(CCO)C3=O)CCN1Cc1ccc(F)c(Cl)c1 (stereo not drawn) | 274 nM | 48 nM | 107 µM (≈ 52.2 µg/mL) | 138 µM (≈ 67.3 µg/mL)
15 | Cc1cccc2c1CCC21NC(=O)c2c3c(c(O)c(=O)n21)C(=O)N(Cc1ccc(F)c(Cl)c1)CC3 (racemic) | 540 nM | 140 nM | < 2 µM | < 2 µM
16 | CN1C(=O)c2c3c(c(O)c(=O)n2C12CCC2)C(=O)N(Cc1ccc(F)c(Cl)c1)CC3 | 900 nM | 210 nM | < 5 µM | < 5 µM
17 | COc1nccc2c1C1(CC2)NC(=O)c2c3c(c(O)c(=O)n21)C(=O)N(Cc1ccc(F)c(Cl)c1)CC3 (racemic) | 1940 nM | 493 nM |  | 

Row | SMILES | IP [1] | IP [2] | solubility [3] | solubility [4]
18 | CCC(O)CN1C(=O)c2c3c(c(O)c(=O)n2C12CCC1CC12)C(=O)N(Cc1ccc(F)c(Cl)c1)CC3 (stereo not drawn) | 120 nM | 15 nM | 54 µM (≈ 27.9 µg/mL) | 69 µM (≈ 35.6 µg/mL)
19 | COc1cccc2c1[C@]1(CC2)NC(=O)c2c3c(c(O)c(=O)n21)C(=O)N(Cc1ccc(F)c(Cl)c1)CC3 | 22 nM | 4 nM | 5 µM (≈ 2.55 µg/mL) | < 2 µM
20 | CC1CCC2(C1)NC(=O)c1c3c(c(O)c(=O)n12)C(=O)N(Cc1ccc(F)c(Cl)c1)CC3 (racemic) | 700 nM | 110 nM | < 5 µM | < 5 µM
21 | CN1CCN(CCN2C(=O)c3c4c(c(O)c(=O)n3C23CCC2CC23)C(=O)N(Cc2ccc(F)c(Cl)c2)CC4)S1(=O)=O (stereo not drawn) | 65 nM | 13 nM | 12 µM (≈ 7.27 µg/mL) | 18 µM (≈ 10.9 µg/mL)
22 | CO[C@H](C)CN1C(=O)c2c3c(c(O)c(=O)n2C12CCC1CC12)C(=O)N(Cc1ccc(F)c(Cl)c1)CC3 (stereo partly drawn) | 180 nM | 25 nM | 26 µM (≈ 13.4 µg/mL) | 46 µM (≈ 23.7 µg/mL)
23 | O=C1NC(C2CCC2)n2c1c1c(c(O)c2=O)C(=O)N(Cc2ccc(F)c(Cl)c2)CC1 (racemic) | > 10000 nM | 8340 nM | 31 µM (≈ 13.4 µg/mL) | 40 µM (≈ 17.3 µg/mL)
24 | CN1CC(=O)N(CCN2C(=O)c3c4c(c(O)c(=O)n3C23CCC2CC23)C(=O)N(Cc2ccc(F)c(Cl)c2)CC4)C1=O (stereo not drawn) | 42 nM | 8 nM | 56 µM (≈ 32.7 µg/mL) | 136 µM (≈ 79.4 µg/mL)
25 | O=C1c2c(c3n(c(=O)c2O)C2(CCC4CC42)N(CCN2C(=O)c4ccccc4C2=O)C3=O)CCN1Cc1ccc(F)c(Cl)c1 (stereo not drawn) | 890 nM | 80 nM | < 2 µM | < 2 µM
26 | CN(CCN1C(=O)c2c3c(c(O)c(=O)n2C12CCC1CC12)C(=O)N(Cc1ccc(F)c(Cl)c1)CC3)S(C)(=O)=O (stereo not drawn) | 150 nM | 19 nM | 17 µM (≈ 9.84 µg/mL) | 33 µM (≈ 19.1 µg/mL)
27 | COC(C)(C)CCN1C(=O)c2c3c(c(O)c(=O)n2C12CCC1CC12)C(=O)N(Cc1ccc(F)c(Cl)c1)CC3 (stereo not drawn) | 410 nM | 45 nM | < 6 µM | < 6 µM
28 | O=C1NC2(Cc3ccccc3C2)n2c1c1c(c(O)c2=O)C(=O)N(Cc2ccc(F)c(Cl)c2)CC1 | 1800 nM | 620 nM | < 3 µM | < 3 µM
29 | O=C1NC2(CCCC2)n2c1c1c(c(O)c2=O)C(=O)N(Cc2ccc(F)c(Cl)c2)CC1 | 1600 nM | 100 nM | 10 µM (≈ 4.32 µg/mL) | < 5 µM
30 | O=C1CC[C@@H](CN2C(=O)c3c4c(c(O)c(=O)n3C23CCC2CC23)C(=O)N(Cc2ccc(F)c(Cl)c2)CC4)N1 (stereo partly drawn) | 130 nM | 40 nM |  | 
31 | C[C@@H](O)CN1C(=O)c2c3c(c(O)c(=O)n2[C@@]12CC[C@H]1C[C@H]12)C(=O)N(Cc1ccc(F)c(Cl)c1)CC3 | 33 nM | 7 nM | 63 µM (≈ 31.6 µg/mL) | 190 µM (≈ 95.4 µg/mL)
32 | Cc1ccc2c(c1)CCC21NC(=O)c2c3c(c(O)c(=O)n21)C(=O)N(Cc1ccc(F)c(Cl)c1)CC3 (racemic) | 240 nM | 59 nM | < 3 µM | < 3 µM
33 | Cc1ccc2c(c1)C1(CC2)NC(=O)c2c3c(c(O)c(=O)n21)C(=O)N(Cc1ccc(F)c(Cl)c1)CC3 (racemic) | 230 nM | 45 nM | < 2 µM | < 2 µM
